Assay results as given in patent US20040258662A1, “Antineoplastic agents” (Wyeth, priority 2003, published 2004).

Assays:
[1] = test system: HTB-44 human renal tumor; assay: HTB-44 human renal tumor xenograft test procedure in nude mice; type: in vivo; set-up: Tumor mass, % of vehicle control, Week 0 / Tumor mass, % of vehicle control, Week 2 / Tumor mass, % of vehicle control, Week 4: concentration or dose not given beside the values; details: for effect on tumor growth (in words): CCI-779 25 mg/kg iv weekly or IFN-α 1 million units ip 3 times per week; for Tumor mass, Week 0 / Tumor mass, Week 2 / Tumor mass, Week 4 / Tumor mass, Week 5: CCI-779 25 mg/kg iv once per week; for Tumor mass, Week 0 / Tumor mass, Week 2 / Tumor mass, Week 4: IFN-α 1 × 10^6 units ip 3 times per week; for Tumor mass, Week 0: 4 weeks, tumors about 600 mg at start; for Tumor mass, % of vehicle control, Week 0 / Tumor mass, % of vehicle control, Week 2 / Tumor mass, % of vehicle control, Week 4 / Tumor mass, % of vehicle control, Week 5: same dosing as the tumor mass values; for Tumor mass, Week 5: IFN-α 1 × 10^6 units ip 3 times per week for 4 weeks
Method: CCI-779 was evaluated in combination with Interferon-alpha (IFN-α) in the HTB44 human mouse xenograft standard pharmacological test procedure of renal cancer. The human renal cell line HTB-44 (also referred to in the scientific literature as A498) is derived from a patient with a clear cell carcinoma that had lost expression of the von Hippel-Lindau (VHL) gene. These types of tumors are representative of the large majority (≈80%) of sporadic renal cell carcinomas.
CCI-779 was evaluated as a single agent on a weekly schedule against large (>500mg) HTB-44 tumors in nude mouse xenografts. Dosing was from 10 mg/kg to 75 mg/kg intravenously once a week beginning on day 0 when tumors had reached a size of about 500 mm^3.
Similarly, a dose response of IFN-α as a single agent was performed. […] Therefore, a dose of 1 million units 3 times per week intraperitoneally was chosen to combine with CCI-779 at 25 mg/kg iv once per week. Groups of 10 mice were treated with CCI-779 alone, IFN-α alone, or the combination (Table 1). IFN-α was given on days 1, 3, and 5 and CCI-779 on day 6 of each week for 4 weeks. Dosing began after tumors had reached a size of about 600 mg.

[2] = Stability of CCI-779 in parenteral cosolvent formulation; type: physicochemical; details: citric acid at a concentration of less than 0.01% w/v
Source text: In this embodiment, the stability of CCI-779 in parenterally acceptable alcoholic cosolvents is enhanced by addition of an antioxidant to the formulation. Acceptable antioxidants include, but are not limited to, citric acid, d,l-α-tocopherol, BHA, BHT, monothioglycerol, ascorbic acid, propyl gallate, and mixtures thereof. Generally, the parenteral formulations useful in this embodiment of the invention will contain an antioxidant component(s) in a concentration ranging from 0.001% to 1% w/v, or 0.01% to 0.5% w/v, of the cosolvent concentrate, although lower or higher concentrations may be desired. Of the antioxidants, d,l-α-tocopherol is particularly desirable and is used at a concentration of 0.01 to 0.1% w/v with a preferred concentration of 0.075% w/v of the cosolvent concentrate.
Examples of such chelating agents include, e.g., citric acid, acetic acid, and ascorbic acid (which may function as both a classic antioxidant and a chelating agent in the present formulations). Other chelating agents include such materials as are capable of binding metal ions in solution, such as ethylene diamine tetra acetic acid (EDTA), its salts, or amino acids such as glycine are capable of enhancing the stability of CCI-779. […] Optimal concentrations for the selected antioxidant(s) can be readily determined by one of skill in the art, based upon the information provided herein.

[3] = test system: advanced RCC; assay: Phase 1 open-label ascending-dose study of CCI-779 plus IFN in RCC patients; type: in vivo
Method: Thus, the combination of CCI-779 and IFN was evaluated in RCC patients (pts) in a phase 1 study.
In an open-label, ascending-dose, single-arm study, CCI-779 was given IV once weekly, with IFN given subcutaneously 3 times weekly. IFN was given alone the 1st treatment week. The starting dose levels were 6 million units (MU) IFN and 5 mg CCI-779. CCI-779 dose-escalation steps were 10 mg, 15 mg, and 25 mg. Once the maximum dose of CCI-779 is determined, the dose level of IFN can be escalated to 9 MU (at a reduced CCI-779 dose, if necessary). Dose escalation was based on a safety evaluation of pts (≧6/cohort) after 4 weeks of treatment.
Up to 40 patients are being evaluated at the maximum tolerated dose (MTD). In summary, 71 pts with advanced RCC were enrolled; 27 continue treatment. Patients (73% men, 27% women) had ECOG performance status of 0: 53% and 1: 46% and median age of 59 yrs (range, 35-80); 45% had prior IL-2 treatment. In dose escalation, patients received 6 MU IFNα with CCI-779 at 5 mg (7 pts), 10 mg (6), 15 mg (6), 20 mg (6), or 25 mg (7); 6 pts also received 9 MU IFNα with 15 mg CCI-779. […] To date, 33 additional patients have been accrued at the MTD. […] CCI-779-related adverse events with overall frequency ≧5% (n=53) were leukopenia (25%), hyperlipidemia (15%), asthenia (13%), AST increase (8%), mucositis (6%), anemia (6%), thrombocytopenia (6%), and rash (6%). Four patients were removed from study due to CCI-779-related toxicity. Approximately 50% of MTD patients have required CCI-779 dose reductions in subsequent cycles. Median time on treatment for all cohorts was 7 mo, 36 have continued for >6 mo of whom 9 have continued for >12 mo. Preliminary tumor responses (RECIST) in 55 pts were confirmed partial response, 7 pts (13%); stable disease, 39 (71%, 19 pts ≧6 mo); and progressive disease, 9 (16%).

[4] = test system: tumor cells; details: cited from earlier work
[5] = test system: human glioblastoma cell line; details: in vitro; cited from earlier work
[6] = test system: human tumor xenografts; details: nude mice, cited from earlier work

CO[C@H]1C[C@@H]2CC[C@@H](C)[C@@](O)(O2)C(=O)C(=O)N2CCCC[C@H]2C(=O)O[C@H]([C@H](C)C[C@@H]2CC[C@@H](OC(=O)C(C)(CO)CO)[C@H](OC)C2)CC(=O)[C@H](C)/C=C(\C)[C@@H](O)[C@@H](OC)C(=O)[C@H](C)C[C@H](C)/C=C/C=C/C=C/1C [CCI-779, Rapamycin 42-ester with 3-hydroxy-2-(hydroxymethyl)-2-methylpropionic acid]
inhibition of tumor growth ([1]; single agent, 10 mg/kg to 75 mg/kg iv once a week, tumors about 500 mm^3 on day 0, all doses): 30-35% | tumor regression at three fold higher dose ([1]; single agent, 75 mg/kg): did not induce tumor regression | effect on tumor growth (in words) ([1]; single agent): retardation of tumor growth without tumor regression | Tumor mass, Week 0 [1]: 589 mg | Tumor mass, % of vehicle control, Week 0 [1]: 100% | Tumor mass, Week 2 [1]: 825 mg | Tumor mass, % of vehicle control, Week 2 [1]: 80% | Tumor mass, Week 4 [1]: 1382 mg | Tumor mass, % of vehicle control, Week 4 [1]: 69% | Tumor mass, Week 5 [1]: 1539 mg | Tumor mass, % of vehicle control, Week 5 [1]: 68% | stability of CCI-779 with citric acid [2]: enhanced the stability | MTD patients requiring CCI-779 dose reductions in subsequent cycles ([3]; at MTD 15 mg CCI-779, 6 MU IFNα): Approximately 50% | Grade 34 CCI-779-related adverse events, frequency: AST increase ([3]; both, human, in vivo): 8% | Grade 34 CCI-779-related adverse events, frequency: anemia ([3]; both, human, in vivo): 6% | Grade 34 CCI-779-related adverse events, frequency: asthenia ([3]; both, human, in vivo): 13% | Grade 34 CCI-779-related adverse events, frequency: hyperlipidemia ([3]; both, human, in vivo): 15% | Grade 34 CCI-779-related adverse events, frequency: leukopenia ([3]; both, human, in vivo): 25% | Grade 34 CCI-779-related adverse events, frequency: mucositis ([3]; both, human, in vivo): 6% | Grade 34 CCI-779-related adverse events, frequency: rash ([3]; both, human, in vivo): 6% | Grade 34 CCI-779-related adverse events, frequency: thrombocytopenia ([3]; both, human, in vivo): 6% | CCI-779-related adverse events, frequency: anemia ([3]; human, in vivo): 33% | CCI-779-related adverse events, frequency: anorexia ([3]; human, in vivo): 33% | CCI-779-related adverse events, frequency: asthenia ([3]; human, in vivo): 39% | CCI-779-related adverse events, frequency: chills ([3]; human, in vivo): 22% | CCI-779-related adverse events, frequency: diarrhea ([3]; human, in vivo): 28% | CCI-779-related adverse events, frequency: fever ([3]; human, in vivo): 22% | CCI-779-related adverse events, frequency: hyperlipidemia ([3]; human, in vivo): 28% | CCI-779-related adverse events, frequency: leukopenia ([3]; human, in vivo): 22% | CCI-779-related adverse events, frequency: nausea ([3]; human, in vivo): 39% | CCI-779-related adverse events, frequency: taste perversion ([3]; human, in vivo): 22% | Gr 3-4 CCI-779-related AEs: hyperglycemia, number of pts ([3]; human, in vivo): 2 pts | Gr 3-4 CCI-779-related AEs: hyperlipidemia, number of pts ([3]; human, in vivo): 4 pts | Gr 3-4 CCI-779-related AEs: leukopenia, number of pts ([3]; human, in vivo): 3 pts | patients removed from study due to CCI-779-related toxicity ([3]; human, in vivo): Four | CCI-779-related adverse events, frequency: mucositis ([3]; preliminary results, n=18, CCI-779 5-25 mg IV once weekly with IFN 6 MU sc 3 times weekly): 44% | CCI-779-related adverse events, frequency: allergic reaction ([3]; preliminary results, n=18, with IFN): 22% | growth of tumor cells in vitro ([4]; CNS cancer, leukemia (T-cell), breast, prostate and melanoma lines most sensitive): inhibit the growth of a number of histologically diverse tumor cells | cell cycle effect ([4]; in vitro): arrested cells in the G1 phase of the cell cycle | growth factor (platelet-derived)-induced stimulation of human glioblastoma cell line [5]: markedly suppressed | activity in orthotopic glioma model [6]: active | activity against human tumor xenografts ([6]; gliomas particularly sensitive): activity against human tumor xenografts of diverse histological types

Interferon α [reference compound]
single agent dose response, effectiveness ([1]; 1 million units or 0.5 million units 3 times per week, data not shown): similarly effective | effect on tumor growth (in words) ([1]; single agent): retardation of tumor growth without tumor regression | Tumor mass, Week 0 [1]: 586 mg | Tumor mass, % of vehicle control, Week 0 [1]: 100% | Tumor mass, Week 2 [1]: 682 mg | Tumor mass, % of vehicle control, Week 2 [1]: 66% | Tumor mass, Week 4 [1]: 957 mg | Tumor mass, % of vehicle control, Week 4 [1]: 48% | Tumor mass, Week 5 [1]: 1280 mg | Tumor mass, % of vehicle control, Week 5 [1]: 57%
